Assay results taken from US20150104430A1, “Methods and Compositions for Generating Pancreatic Progenitors and Functional Beta Cells from hPSCs” (University Health Network, priority 2012, published 2015).

Assays:
[1] = tested on: human ES cell line: H9 (WA09); assay: Percentage of NKX6-1+ cells after stage 4 treatment of H9 (WA09)-derived endodermal cells; format: cell-based; conditions: day 13 of differentiation, treatment at stage 4
[2] = tested on: human fetal pancreatic cells; conditions: Otonkoski et al., 1993; cited from earlier work

Molecule	Percentage of NKX6-1+ cells [1]	induction of endocrine differentiation [2]
EGF [EGF (E)]	18.5%	–
NC(=O)c1cccnc1 [Nicotinamide (NA), Nicotinamide]	14.0%	potent inducer of endocrine differentiation
Noggin (protein, UniProt Q13253 28-232, looked up, bone morphogenetic protein antagonist having Gene ID: 9241) Noggin: QHYLHIRPAPSDNLPLVDLIEHPDPIFDPKEKDLNETLLRSLLGGHYDPGFMATSPPEDRPGGGGGAAGGAEDLAELDQLLRQRPSGAMPSEIKGLEFSEGLAQGKKQRLSKKLRRKLQMWLWSQTFCPVLYAWNDLGSRFWPRYVKVGSCFSKRSCSVPEGMVCKPSKSVHLTVLRWRCQRRGGQRCGWIPIQYPIISECKCSC	21.7%	–
